# Test results: publication PMC9645260, “Small-molecule inhibitors of P-Rex guanine-nucleotide exchange factors” (Small GTPases, 2022)
# How the values were obtained:
# DOCK2 = test system: DOCK2; design: method as in PMID 22520755; details: cited from earlier work
# P-Rex1 DHPH domain = target: T1, P-Rex1 DHPH domain (Homo sapiens, UniProt Q8TCU6); assay: Mant-GTP GEF activity assay; format: biochemical; details: 10 µM
# T1 construct: 100 nM EE-P-Rex1 DHPH domains (PREX-in1, compounds 2–10 and 30–128); made in house; host or cells: Sf9 cells (baculovirus)
# Protocol: The mant-GTP GEF activity assay measures the binding of fluorescent 2’/3’-O-(N-Methyl-anthraniloyl)-guanosine-5’-triphosphate (mant)-GTP to Rac, making use of the spectroscopic differences between bound and free mant-GTP. P-Rex1 DHPH domain protein was diluted to 375 nM in exchange buffer (20 mM Tris, pH 7.5 RT, 50 mM NaCl, 200 mM KCl, 4 mM MgCl2, 50 μg/ml fatty-acid-free BSA). The inhibitors PREX-in1 or EHop-016 were diluted to various concentrations in exchange buffer containing 15% DMSO. 4.4 µl P-Rex1 DHPH domain protein were incubated with 1.1 µl PREX-in1 or EHop-016 for 30 min at 30°C, or were mock treated with 1.1 µl vehicle (15% DMSO). 5 μl of the P-Rex1 DHPH / inhibitor mix was then added to 10 µl of a 1.5x reaction mix containing 225 nM bacteria-derived EE-Rac1, 7.5 µM mant-GTP and 15 µM GTP in exchange buffer in a 96-well plate. Final assay concentrations were 150 nM EE-Rac1, 100 nM P-Rex1 DHPH domain, 5 μM mant-GTP, 10 µM GTP, […] fatty-acid-free BSA, 1% DMSO, and the indicated concentrations of inhibitor. Mant-GTP fluorescence was measured in real time in a PHERAstar 384-well fluorescence plate reader at 25°C for 40 min using 360 nm excitation and 440 nm emission.
# [1] = test system: Rac-dependent cell responses; design: method as in PMID 22383527; details: lamellipodia formation and migration; cited from earlier work
# full-length P-Rex1 = target: T2, full-length P-Rex1 (Homo sapiens, UniProt Q8TCU6); assay: Liposome-based GEF activity assay, PIP3-stimulated full-length P-Rex1; format: biochemical; details: 200 µM, pilot experiments, EE-Rac2 substrate
# T2 construct: Full-length N-terminally EE-tagged P-Rex1, P-Rex2, the P-Rex1 DH and DHPH domains and the P-Rex2 DH domain were produced in Sf9 cells; made in house; host or cells: Sf9 cells (baculovirus)
# Text: All small GTPases and GEFs used were human recombinant proteins. EE-Rac1, EE-Rac2, GST-Cdc42 or GST-RhoA were expressed in Sf9 cells by baculoviral transduction and purified using their epitope tag in their post-translationally prenylated form using Triton X-114 phase separation, essentially as previously described. Briefly, frozen pellets from a 1 litre culture of Sf9 cells transduced with high-titre baculovirus expressing the small GTPase were resuspended in ice-cold Sf9-cell lysis buffer 1 (1x PBS, 40 mM HEPES pH 7.5 at RT, 5 mM MgCl2, 10 mM EGTA, 300 µM GDP, 1 mM DTT, 200 µM PMSF, 20 μg/ml each of leupeptin, pepstatin A, aprotinin and antipain) and lysed by sonication. Triton X-114 was added (to 1% final concentration), and samples were ultracentrifuged at 118,000 × g for 50 min at 4°C. The supernatant was warmed at 37°C until cloudy (30–60 seconds) and centrifuged at 1300 × g for 2 min at 37°C. The upper phase containing non-lipid modified GTPase was discarded and replaced with ice-cold Sf9-cell lysis buffer. The warming/centrifugation steps were repeated twice and lipid-modified GTPase resuspended in ice-cold Sf9-cell lysis buffer 1 supplemented with Triton X-100 (1% final concentration), followed by ultracentrifugation at 118,000 × g for 50 min at 4°C. For EE-tagged GTPases, supernatants were incubated with anti-EE antibody covalently coupled to protein G-Sepharose beads (anti-EE beads, Onyx Pharmaceuticals) and incubated with end-over-end rotation for 90 min on ice. Beads were washed 3 times in wash buffer (PBS, 5 mM MgCl2, 1 mM DTT, 10 μM GDP, 1 mM EGTA, 0.2% Triton X-100) and 5x in elution buffer (40 mM HEPES pH 7.5, 150 mM NaCl, 5 mM MgCl2, 1 mM EGTA, 1 mM DTT, 10 µM GDP). Protein was eluted by three incubations with elution buffer containing peptide Ac-EEYMPME (Activotec, Comberton, UK) and cholate (first 1%, then twice 0.5%) for 20 min on ice. For GST-tagged GTPases, supernatants were incubated with glutathione Sepharose beads and were eluted with glutathione in the same manner. Proteins were concentrated in a YM-10 Centricon (Millipore) at 5000 × g, 4°C. Protein concentration and purity was determined by coomassie staining of SDS-PAGE gels. For use in the mant-GTP assay, EE-Rac 1 was expressed in BL21 (DE3) bacteria (NEB, C25271), by induction with 0.5 mM IPTG overnight at 18°C. Bacterial pellets from 500 ml cultures were resuspended in 20 ml bacterial lysis buffer (40 mM Hepes, pH 7.5 at 4°C, 150 mM NaCl, 1% Triton X-100, 5 mM MgCl2, 1 mM DTT, 300 μM GDP, 200 µM PMSF, and 20 μg/ml each of leupeptin, pepstatin A, aprotinin and antipain) and were lysed by sonication. 5 μg/ml DNAse and 5 μg/ml RNAse were added and the lysate incubated on ice for 10 min. […]
# HEK-293 cells = assay: Cell cycle stages by propidium iodide flow cytometry; format: cell-based; details: 24 h treatment, 10 µM
# Protocol: Human embryonic kidney 293 (HEK-293) cells were grown at 37°C in a humidified 5% CO2 atmosphere in Dulbecco’s modified Eagle medium (DMEM, Gibco) supplemented with 10% foetal bovine serum (FBS), 100 units/ml penicillin and 100 µg/ml streptomycin. Cells were passaged by tryptic digest 1:4 approximately every 2 days. To measure cell cycle stages, 2 ml HEK293 cells were plated per well of a 6-well dish (Thermo Scientific, Nunc) at 10^5 cells/ml. After 24 h, the medium was replaced with fresh medium containing various concentrations of PREX-in1, as indicated, or 10 μM NSC23766, or vehicle control (0.1% DMSO), and cells were incubated for a further 24 h. The medium was removed but kept aside to recover any detached cells. Wells were washed with PBS, and cells recovered by trypsinization. Cell suspensions were pooled with the culture supernatant and centrifuged at 433 × g for 5 min at RT. Cells were washed in PBS, resuspended in ice-cold 70% ethanol/PBS, and incubated for 30 min at 4°C for fixation and permeabilization. Cells were washed once more in PBS, then stained with 50 µg/ml propidium iodide in PBS containing 100 µg/ml RNase for 30 min at 37°C. Cells were analysed by flow cytometry for the intensity of propidium iodide staining using a FACSCalibur flow cytometer. 10,000 cells were analysed per sample. Data analysis was done using FloJo software.
# Tiam1 = test system: Tiam1; design: method as in PMID 15128949; details: cited from earlier work
# TrioN = test system: TrioN; design: method as in PMID 15128949; details: cited from earlier work
# T1 sequence (Q8TCU6 49-392 limits assumed): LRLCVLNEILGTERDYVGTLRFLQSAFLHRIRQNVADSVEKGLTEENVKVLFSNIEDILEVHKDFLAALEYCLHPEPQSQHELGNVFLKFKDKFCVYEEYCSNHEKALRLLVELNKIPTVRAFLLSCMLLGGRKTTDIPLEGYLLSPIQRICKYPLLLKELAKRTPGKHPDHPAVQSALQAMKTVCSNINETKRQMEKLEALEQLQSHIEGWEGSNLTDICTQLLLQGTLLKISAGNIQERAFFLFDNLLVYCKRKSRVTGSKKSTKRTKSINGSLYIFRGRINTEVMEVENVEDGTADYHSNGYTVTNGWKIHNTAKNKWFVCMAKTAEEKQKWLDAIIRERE
# T2 sequence (Q8TCU6 whole entry, the tested form may be a part): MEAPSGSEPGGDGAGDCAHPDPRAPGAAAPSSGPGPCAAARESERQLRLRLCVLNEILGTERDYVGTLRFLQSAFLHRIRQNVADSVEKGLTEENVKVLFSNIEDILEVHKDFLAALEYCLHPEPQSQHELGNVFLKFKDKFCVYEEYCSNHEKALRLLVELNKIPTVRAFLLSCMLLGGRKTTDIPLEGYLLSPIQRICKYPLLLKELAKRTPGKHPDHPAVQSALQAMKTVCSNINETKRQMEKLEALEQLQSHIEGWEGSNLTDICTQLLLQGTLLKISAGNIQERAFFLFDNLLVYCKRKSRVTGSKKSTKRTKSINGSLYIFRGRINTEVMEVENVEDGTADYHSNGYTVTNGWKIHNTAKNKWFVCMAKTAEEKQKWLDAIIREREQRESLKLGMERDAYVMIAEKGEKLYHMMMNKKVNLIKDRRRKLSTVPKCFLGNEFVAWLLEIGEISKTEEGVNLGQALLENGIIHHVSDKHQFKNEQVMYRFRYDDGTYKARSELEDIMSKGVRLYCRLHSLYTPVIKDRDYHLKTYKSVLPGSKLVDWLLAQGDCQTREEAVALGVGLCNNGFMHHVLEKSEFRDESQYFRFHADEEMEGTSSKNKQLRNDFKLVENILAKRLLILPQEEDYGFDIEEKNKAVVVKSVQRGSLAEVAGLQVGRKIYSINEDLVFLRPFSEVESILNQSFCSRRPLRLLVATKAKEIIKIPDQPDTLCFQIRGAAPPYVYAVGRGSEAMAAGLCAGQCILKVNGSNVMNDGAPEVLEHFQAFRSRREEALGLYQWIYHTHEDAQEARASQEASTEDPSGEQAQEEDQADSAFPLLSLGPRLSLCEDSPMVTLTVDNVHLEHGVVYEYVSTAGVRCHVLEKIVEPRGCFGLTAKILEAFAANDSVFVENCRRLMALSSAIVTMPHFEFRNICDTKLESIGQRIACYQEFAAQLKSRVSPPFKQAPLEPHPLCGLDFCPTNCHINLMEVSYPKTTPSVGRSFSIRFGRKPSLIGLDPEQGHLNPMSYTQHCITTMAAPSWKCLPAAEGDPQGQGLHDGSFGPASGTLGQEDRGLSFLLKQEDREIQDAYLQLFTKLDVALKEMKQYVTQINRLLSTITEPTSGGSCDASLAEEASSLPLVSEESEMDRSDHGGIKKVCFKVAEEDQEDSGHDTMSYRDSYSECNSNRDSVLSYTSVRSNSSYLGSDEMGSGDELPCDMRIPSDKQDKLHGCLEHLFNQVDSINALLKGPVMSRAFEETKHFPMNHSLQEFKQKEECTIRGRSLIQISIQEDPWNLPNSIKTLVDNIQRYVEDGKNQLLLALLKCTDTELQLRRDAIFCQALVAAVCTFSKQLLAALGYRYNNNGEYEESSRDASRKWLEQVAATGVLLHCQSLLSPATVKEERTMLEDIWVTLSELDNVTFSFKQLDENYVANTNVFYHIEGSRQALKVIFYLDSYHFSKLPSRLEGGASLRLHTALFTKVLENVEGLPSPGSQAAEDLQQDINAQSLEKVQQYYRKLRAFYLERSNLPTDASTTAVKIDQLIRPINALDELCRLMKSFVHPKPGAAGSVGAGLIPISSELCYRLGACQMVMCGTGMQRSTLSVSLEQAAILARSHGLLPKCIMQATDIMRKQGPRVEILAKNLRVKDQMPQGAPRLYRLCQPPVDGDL
smiles,measurement,setting,value
O=C1NN(c2ccccc2)C(=O)/C1=C/C=C/c1ccccc1Cl [CPYPP],IC50,DOCK2,22.8 µM
"CCn1c2ccccc2c2cc(Nc3ccnc(NCCCN4CCOCC4)n3)ccc21 [EHop-016, reference compound]",effect on P-Rex1 DHPH-dependent mant-GTP loading of Rac1,P-Rex1 DHPH domain,did not affect
same,IC50 for blocking Rac-dependent cell responses,[1],low micromolar
"CCN(CC)CCCC(C)Nc1nc(C)cc(Nc2ccc3nc(C)cc(N)c3c2)n1 (stereo not shown) [NSC23766, reference compound]",effect on PIP3-stimulated Rac-GEF activity of full-length P-Rex1,full-length P-Rex1,did not appear to inhibit
same,cell death (sub-G1 phase),HEK-293 cells,caused cell death to a similar extent
same,IC50,Tiam1,~50 µM
same,IC50,TrioN,~50 µM
